# Results: ChEMBL document CHEMBL1759974, “Discovery of triazine-benzimidazoles as selective inhibitors of mTOR” (Bioorg Med Chem Lett, 2011)
# pIC50: −log10 of the molar value.
# What was measured:
# [1] = target: T1, Serine/threonine-protein kinase mTOR (Homo sapiens, UniProt P42345)
# [2] = Intrinsic clearance in human liver microsomes; type: ADME, Microsome
# [3] = Half life in Sprague-Dawley rat at 1 mg/kg, iv; type: ADME, organism-based; set-up: dose 1 mg/kg, route intravenous; conditions: in vivo
# [4] = target: Phosphatidylinositol 4,5-bisphosphate 3-kinase catalytic subunit alpha isoform (Homo sapiens, UniProt P42336)
# [5] = Oral bioavailability in Sprague-Dawley rat at 2 mg/kg; type: ADME, organism-based; conditions: in vivo
# [6] = target: Phosphatidylinositol 4,5-bisphosphate 3-kinase catalytic subunit beta isoform (Homo sapiens, UniProt P42338)
# Rattus norvegicus [7] = assay: In vivo clearance in bile-duct cannulated rat assessed as multiple glucuronidation metabolites in bile by LC/MS analysis; type: ADME, organism-based
# [8] = Intrinsic clearance in rat liver microsomes; type: ADME, Microsome
# [9] = Plasma protein binding in Sprague-Dawley rat at 1 mg/kg, iv and 2 mg/kg, po; type: ADME, organism-based; conditions: read-out: PPB (converted)
# Liver = assay: Intrinsic clearance in rat liver hepatocytes; type: ADME, cell-based, Hepatocyte
# [10] = Clearance in Sprague-Dawley rat at 1 mg/kg, iv and 2 mg/kg, po; type: ADME, organism-based; conditions: in vivo
# [11] = Volume of distribution at steady state in Sprague-Dawley rat at 1 mg/kg, iv and 2 mg/kg, po; type: ADME, organism-based; conditions: in vivo, read-out: Vdss
# [12] = target: T2, Phosphatidylinositol 4,5-bisphosphate 3-kinase catalytic subunit delta isoform (Homo sapiens, UniProt O00329)
# T2 sequence (O00329 whole entry): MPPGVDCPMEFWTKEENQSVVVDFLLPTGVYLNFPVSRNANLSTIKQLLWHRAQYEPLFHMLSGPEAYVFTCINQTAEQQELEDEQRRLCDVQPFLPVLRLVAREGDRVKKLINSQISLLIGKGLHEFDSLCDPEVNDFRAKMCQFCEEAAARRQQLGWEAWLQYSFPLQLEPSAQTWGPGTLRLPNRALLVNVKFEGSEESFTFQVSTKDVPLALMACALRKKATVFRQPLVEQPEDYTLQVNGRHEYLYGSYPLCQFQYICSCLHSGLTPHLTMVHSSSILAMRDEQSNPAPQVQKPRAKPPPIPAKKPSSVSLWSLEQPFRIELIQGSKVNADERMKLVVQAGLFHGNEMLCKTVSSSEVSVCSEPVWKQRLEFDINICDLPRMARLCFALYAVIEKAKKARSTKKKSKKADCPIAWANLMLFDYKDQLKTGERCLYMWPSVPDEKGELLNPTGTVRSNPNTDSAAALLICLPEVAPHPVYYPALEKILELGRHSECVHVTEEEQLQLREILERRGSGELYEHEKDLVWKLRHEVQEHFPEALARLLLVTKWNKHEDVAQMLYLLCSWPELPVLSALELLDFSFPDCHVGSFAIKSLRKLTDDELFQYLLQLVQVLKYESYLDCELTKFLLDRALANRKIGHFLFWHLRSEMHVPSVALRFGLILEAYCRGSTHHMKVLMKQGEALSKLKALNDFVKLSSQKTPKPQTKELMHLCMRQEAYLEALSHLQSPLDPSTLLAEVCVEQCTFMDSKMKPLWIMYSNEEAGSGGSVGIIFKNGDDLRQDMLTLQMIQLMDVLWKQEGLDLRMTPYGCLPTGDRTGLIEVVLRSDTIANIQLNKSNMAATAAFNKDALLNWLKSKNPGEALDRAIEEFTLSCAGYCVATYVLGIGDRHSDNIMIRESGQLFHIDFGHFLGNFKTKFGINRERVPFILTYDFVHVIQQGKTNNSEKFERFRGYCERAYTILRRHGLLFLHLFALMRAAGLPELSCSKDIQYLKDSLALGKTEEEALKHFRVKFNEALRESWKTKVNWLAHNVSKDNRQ
# [13] = target: T1, Serine/threonine-protein kinase mTOR; remark: listed apart in the source
# Rattus norvegicus [14] = assay: AUC in Sprague-Dawley rat at 1 mg/kg, iv; type: ADME, organism-based, Plasma; set-up: dose 1 mg/kg, route intravenous; conditions: in vivo
# [15] = target: T1, Serine/threonine-protein kinase mTOR; remark: listed apart in the source
# Description: Inhibition of mTOR in human U-87 cells assessed as inhibition of phosphorylation of AKT at S473
# [16] = Solubility of compound in 0.01 N HCL; type: physicochemical; conditions: buffer
# Rattus norvegicus [17] = assay: AUC in Sprague-Dawley rat at 0.5 mg/kg, iv; type: ADME, organism-based, Plasma; set-up: dose 0.5 mg/kg, route intravenous; conditions: in vivo
# [18] = Volume of distribution at steady state in Sprague-Dawley rat at 0.5 mg/kg, iv; type: ADME, organism-based; set-up: dose 0.5 mg/kg, route intravenous; conditions: in vivo, read-out: Vdss
# [19] = Half life in Sprague-Dawley rat at 0.5 mg/kg, iv; type: ADME, organism-based; set-up: dose 0.5 mg/kg, route intravenous; conditions: in vivo
# [20] = Clearance in Sprague-Dawley rat at 0.5 mg/kg, iv; type: ADME, organism-based; set-up: dose 0.5 mg/kg, route intravenous; conditions: in vivo
# [21] = target: Phosphatidylinositol 4,5-bisphosphate 3-kinase catalytic subunit gamma isoform (Homo sapiens, UniProt P48736)
# Chain of Phosphatidylinositol 4,5-bisphosphate 3-kinase catalytic subunit gamma isoform (P48736 whole entry, canonical isoform): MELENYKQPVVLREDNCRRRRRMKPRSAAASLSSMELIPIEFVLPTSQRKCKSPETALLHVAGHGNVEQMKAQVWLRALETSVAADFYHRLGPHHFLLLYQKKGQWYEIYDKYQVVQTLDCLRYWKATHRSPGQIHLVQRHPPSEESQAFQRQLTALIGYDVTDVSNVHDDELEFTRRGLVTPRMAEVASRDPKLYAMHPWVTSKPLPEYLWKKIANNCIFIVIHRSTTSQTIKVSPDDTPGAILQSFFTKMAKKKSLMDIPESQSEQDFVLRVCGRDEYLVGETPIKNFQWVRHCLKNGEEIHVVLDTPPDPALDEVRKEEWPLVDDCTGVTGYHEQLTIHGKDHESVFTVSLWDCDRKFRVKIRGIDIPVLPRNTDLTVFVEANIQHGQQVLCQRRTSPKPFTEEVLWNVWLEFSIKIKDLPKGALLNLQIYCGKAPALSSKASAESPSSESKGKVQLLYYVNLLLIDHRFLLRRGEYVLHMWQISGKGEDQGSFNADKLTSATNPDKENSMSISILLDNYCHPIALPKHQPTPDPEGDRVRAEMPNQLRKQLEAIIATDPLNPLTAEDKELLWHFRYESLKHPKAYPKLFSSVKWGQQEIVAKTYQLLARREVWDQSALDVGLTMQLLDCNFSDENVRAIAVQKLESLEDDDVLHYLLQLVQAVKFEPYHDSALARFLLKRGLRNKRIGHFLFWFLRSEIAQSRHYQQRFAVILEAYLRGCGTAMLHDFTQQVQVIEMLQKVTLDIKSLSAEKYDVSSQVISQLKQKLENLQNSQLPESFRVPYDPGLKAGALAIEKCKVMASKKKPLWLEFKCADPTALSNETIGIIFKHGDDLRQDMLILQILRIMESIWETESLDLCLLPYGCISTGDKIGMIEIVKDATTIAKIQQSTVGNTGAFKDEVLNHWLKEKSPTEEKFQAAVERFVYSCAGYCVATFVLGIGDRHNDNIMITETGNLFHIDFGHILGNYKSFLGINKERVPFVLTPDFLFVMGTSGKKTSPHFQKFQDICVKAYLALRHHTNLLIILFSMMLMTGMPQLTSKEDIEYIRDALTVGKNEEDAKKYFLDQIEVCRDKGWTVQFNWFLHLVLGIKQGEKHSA
# Chain of Phosphatidylinositol 4,5-bisphosphate 3-kinase catalytic subunit alpha isoform (P42336 whole entry, canonical isoform): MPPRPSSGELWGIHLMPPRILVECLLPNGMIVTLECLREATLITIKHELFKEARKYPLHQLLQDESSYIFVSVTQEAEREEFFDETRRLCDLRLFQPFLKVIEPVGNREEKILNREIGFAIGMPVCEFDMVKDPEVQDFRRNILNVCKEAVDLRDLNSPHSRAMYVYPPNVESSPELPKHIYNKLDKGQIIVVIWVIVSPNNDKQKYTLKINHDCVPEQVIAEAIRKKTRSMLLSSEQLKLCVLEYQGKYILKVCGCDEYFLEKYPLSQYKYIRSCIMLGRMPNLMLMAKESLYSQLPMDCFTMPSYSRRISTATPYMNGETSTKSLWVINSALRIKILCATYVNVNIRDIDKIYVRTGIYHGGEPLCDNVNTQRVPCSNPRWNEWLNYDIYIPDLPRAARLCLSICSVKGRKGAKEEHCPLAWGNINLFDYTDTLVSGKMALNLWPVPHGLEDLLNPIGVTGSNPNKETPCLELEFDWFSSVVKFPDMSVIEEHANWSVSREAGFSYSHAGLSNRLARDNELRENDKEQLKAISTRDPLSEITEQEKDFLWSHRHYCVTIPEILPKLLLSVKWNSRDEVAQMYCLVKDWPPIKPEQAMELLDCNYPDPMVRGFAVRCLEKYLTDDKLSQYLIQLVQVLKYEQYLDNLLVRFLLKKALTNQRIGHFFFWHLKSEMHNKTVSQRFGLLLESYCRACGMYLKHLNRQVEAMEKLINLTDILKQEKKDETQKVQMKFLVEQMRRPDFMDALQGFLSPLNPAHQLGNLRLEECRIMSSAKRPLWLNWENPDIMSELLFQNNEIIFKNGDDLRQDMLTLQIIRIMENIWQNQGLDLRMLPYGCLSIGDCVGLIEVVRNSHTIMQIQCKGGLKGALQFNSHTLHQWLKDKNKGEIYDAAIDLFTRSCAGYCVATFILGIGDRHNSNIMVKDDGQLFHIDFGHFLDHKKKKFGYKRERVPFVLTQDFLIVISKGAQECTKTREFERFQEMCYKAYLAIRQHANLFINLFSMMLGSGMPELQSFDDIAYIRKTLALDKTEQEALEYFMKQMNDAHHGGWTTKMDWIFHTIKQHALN
# Chain of Phosphatidylinositol 4,5-bisphosphate 3-kinase catalytic subunit beta isoform (P42338 whole entry, canonical isoform): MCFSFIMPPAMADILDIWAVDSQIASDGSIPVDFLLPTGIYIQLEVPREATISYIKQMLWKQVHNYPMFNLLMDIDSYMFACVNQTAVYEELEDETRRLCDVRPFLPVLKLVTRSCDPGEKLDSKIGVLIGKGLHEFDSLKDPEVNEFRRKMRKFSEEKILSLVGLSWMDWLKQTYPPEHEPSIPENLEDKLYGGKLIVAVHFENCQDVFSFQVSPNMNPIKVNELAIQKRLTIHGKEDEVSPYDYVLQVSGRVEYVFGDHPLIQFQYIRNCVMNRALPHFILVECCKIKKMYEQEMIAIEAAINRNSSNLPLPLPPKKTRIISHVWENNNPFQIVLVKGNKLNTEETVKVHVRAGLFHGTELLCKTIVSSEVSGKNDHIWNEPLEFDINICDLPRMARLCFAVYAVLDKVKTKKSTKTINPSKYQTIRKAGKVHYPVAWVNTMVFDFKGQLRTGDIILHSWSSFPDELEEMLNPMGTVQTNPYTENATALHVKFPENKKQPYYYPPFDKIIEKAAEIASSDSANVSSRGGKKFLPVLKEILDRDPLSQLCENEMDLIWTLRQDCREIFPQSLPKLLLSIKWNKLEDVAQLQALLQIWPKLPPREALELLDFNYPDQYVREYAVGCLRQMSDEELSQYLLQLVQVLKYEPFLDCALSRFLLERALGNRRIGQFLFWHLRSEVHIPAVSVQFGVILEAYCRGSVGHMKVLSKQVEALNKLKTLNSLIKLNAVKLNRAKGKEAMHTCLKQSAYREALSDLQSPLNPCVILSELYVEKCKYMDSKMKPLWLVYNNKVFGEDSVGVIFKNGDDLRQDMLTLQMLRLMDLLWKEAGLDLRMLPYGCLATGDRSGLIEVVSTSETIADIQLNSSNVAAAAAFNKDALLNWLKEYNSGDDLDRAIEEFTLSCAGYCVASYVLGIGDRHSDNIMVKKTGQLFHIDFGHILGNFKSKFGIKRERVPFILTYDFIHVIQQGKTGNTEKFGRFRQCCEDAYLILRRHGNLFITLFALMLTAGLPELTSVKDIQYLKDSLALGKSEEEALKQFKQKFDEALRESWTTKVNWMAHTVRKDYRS
pIC50 [1],pIC50 [4],bioavailability [5] [%],pIC50 [6],fraction unbound [9],pIC50 [12],pIC50 [13],pIC50 [15],Compound,also measured
6.41,6.10,6.3,6.06,0.028,6.29,7.57,7.26,Cc1nc(N)nc(-n2c(Nc3ccn[nH]3)nc3ccccc32)n1,microsomal CLint [2]: 79 µL/min/mg; half-life [3]: 43.2 min; Activity (Rattus norvegicus [7]): Active; microsomal CLint [8]: 52 µL/min/mg; CL (Liver): 28 µL/min/mg; clearance [10]: 31.7 mL/min/kg; Vd [11]: 1.1 L/kg; AUC (Rattus norvegicus [14]): 1680 nM; solubility [16]: 37 µg/mL
6.22,5.21,0,5.07,0.016,5.40,7.51,7.14,Cc1nc(NCC#N)nc(-n2c(Nc3ccn[nH]3)nc3ccccc32)n1,AUC (Rattus norvegicus [17]): 559 nM; Vd [18]: 1.5 L/kg; half-life [19]: 27 min; clearance [20]: 41.7 mL/min/kg; pIC50 [21]: 5.44
